Measured values taken from patent publication US4383114A, “Adenosine deaminase resistant antiviral purine arabinonucleosides” (priority 1981, dated 1983).
In brackets after ≈: the same amount, converted by molar mass. Several values for one entry are separate records, joined by “and”; a condition that tells them apart may be missing. Equal values may be shown once.

What was measured:
[1] = test system: adenosine deaminase; test: inhibition of enzymatic deamination of ara-A or adenosine; assay type: biochemical, calf; conditions: substrates ara-A or adenosine
[2] = test system: herpes simplex virus (HSV) type 1 (strain HF); assay type: cell-based, herpes simplex virus type 1
[3] = test system: vaccinia virus (VV) (Strain Lederle Chorioallantoic); test: microbe, parasite or virus in culture; assay type: cell-based
[4] = toxicity in uninfected (toxicity control) or treated mice; assay type: in vivo, Random-bred Swiss mice, female; conditions: for Avg. Body Wt. on Day 0 / Avg. Body Wt. on Day 7 / Avg. Body Wt. on Day 14 / Avg. Body Wt. on Day 21 / Mortality: No. Dead/Total No. of Mice / mortality at 504 h: uninfected toxicity controls; for mortality at 504 h: mouse, in vivo, ip
Method: River Breeding Laboratories, Inc.
cellulose (HPC) at four different
centrations so that a single daily
volume of 0.01 ml/gm of body
The drugs were administered once
for 7 days beginning 4 hours after […]

[5] = test system: calf intestinal mucosa adenosine deaminase (Sigma Chemical Company); test: adenosine deaminase activity on Ara-A, Cyclaradine and Aristeromycin (Example 14); assay type: in vitro ADME; conditions: 1×10^-4 M, pH 7.5, 17.75 units/ml enzyme
Excerpt: The deaminated products were further identified by thin-layer chromatography using authentic samples for reference.

[6] = test system: HSV and VV; test: organism not typed; assay type: cell-based
[7] = test system: calf intestinal adenosine deaminase (type III, Sigma); test: resistance to deamination by adenosine deaminase (Example 11); conditions: for deamination by adenosine deaminase: conditions under which ara-A is completely deaminated
[8] = cytotoxicity, growing P-388 mouse lymphoid leukemia cells in presence of drug; conditions: p-388 cells
[9] = test system: adenosine deaminase; conditions: background statement; cited from earlier work

Nc1ncnc2c1ncn2[C@@H]1C[C@H](CO)[C@@H](O)[C@@H]1O (relative stereo) [cyclaradine, 9-[α-(2α,3β-Dihydroxy-4α(hydroxymethyl)cyclopentyl)]adenine]
inhibition of enzymatic deamination [1]: did not inhibit | Virus Rating (VR) [2]: 2.2 and 3.5 | EC50 ([3]; Orthopoxvirus vaccinia, HEp-2, read-out: MED50 (minimum drug dose required for 50% inhibition of virus-induced cpe)): 9 µg/mL (≈ 33.9 µM) | Virus Rating (VR) ([3]; vaccinia virus, HEp-2 cells, VR ≥ 1.0 definite, 0.5-0.9 marginal to moderate, < 0.5 no apparent antiviral activity): 1.5 and 1.7 | weight loss or apparent toxicity ([4]; 750 mg/kg/day (equimolar to ara-A 755.3 mg/kg/day)): no significant weight loss or apparent toxicity | lethal toxicity for uninfected animals ([4]; 900 mg/kg/day, qd 1-7, uninfected): apparently not lethally toxic | Avg. Body Wt. on Day 0 ([4]; C-Ara-A 112.5 mg/kg/day): 21.8 gm | Avg. Body Wt. on Day 7 ([4]; C-Ara-A 112.5 mg/kg/day): 24.5 gm | Avg. Body Wt. on Day 14 ([4]; C-Ara-A 112.5 mg/kg/day): 26.5 gm | Avg. Body Wt. on Day 21 ([4]; C-Ara-A 112.5 mg/kg/day): 28.5 gm | Mortality: No. Dead/Total No. of Mice ([4]; C-Ara-A 112.5 mg/kg/day): 0/5 | Avg. Body Wt. on Day 0 ([4]; C-Ara-A 225 mg/kg/day): 21.8 gm | Avg. Body Wt. on Day 7 ([4]; C-Ara-A 225 mg/kg/day): 24.4 gm | Avg. Body Wt. on Day 14 ([4]; C-Ara-A 225 mg/kg/day): 26.8 gm | Avg. Body Wt. on Day 21 ([4]; C-Ara-A 225 mg/kg/day): 29.3 gm | Mortality: No. Dead/Total No. of Mice ([4]; C-Ara-A 225 mg/kg/day): 0/5 | Avg. Body Wt. on Day 0 ([4]; C-Ara-A 450 mg/kg/day): 21.6 gm | Avg. Body Wt. on Day 7 ([4]; C-Ara-A 450 mg/kg/day): 22.6 gm | Avg. Body Wt. on Day 14 ([4]; C-Ara-A 450 mg/kg/day): 25.9 gm | Avg. Body Wt. on Day 21 ([4]; C-Ara-A 450 mg/kg/day): 28.3 gm | Mortality: No. Dead/Total No. of Mice ([4]; C-Ara-A 450 mg/kg/day): 0/5 | Avg. Body Wt. on Day 0 ([4]; C-Ara-A 900 mg/kg/day): 21.8 gm | Avg. Body Wt. on Day 7 ([4]; C-Ara-A 900 mg/kg/day): 22.5 gm | Avg. Body Wt. on Day 14 ([4]; C-Ara-A 900 mg/kg/day): 25.3 gm | Avg. Body Wt. on Day 21 ([4]; C-Ara-A 900 mg/kg/day): 28 gm | Mortality: No. Dead/Total No. of Mice ([4]; C-Ara-A 900 mg/kg/day): 0/5 | toxicity of dose levels ([4]; cyclaradine 112.5 to 450 mg/kg/day, qd 1-7): non-toxic | tolerability compared with ara-A ([4]; higher dose levels, mice): obviously better tolerated than ara-A | mortality at 504 h ([4]; C-Ara-A 112.5 mg/kg/day): 0% | mortality at 504 h ([4]; C-Ara-A 225 mg/kg/day): 0% | mortality at 504 h ([4]; C-Ara-A 450 mg/kg/day): 0% | mortality at 504 h ([4]; C-Ara-A 900 mg/kg/day): 0% | conversion to deaminated product ([5]; overnight incubation): no conversion to deaminated product was detected | antiviral activity against HSV and VV [6]: highly significant antiviral activity | EC50 ([6]; read-out: approximate MED50): ~9 µg/mL (≈ 33.9 µM) | deamination by adenosine deaminase [7]: no detectable deamination | CC50 [8]: 10 µM

Nc1ncnc2c1ncn2[C@@H]1C[C@H](CO)[C@@H](O)[C@H]1O [Aristeromycin]
conversion to deaminated product ([5]; 2 hours, 25° C): complete conversion

Nc1ncnc2c1ncn2[C@@H]1O[C@H](CO)[C@@H](O)[C@@H]1O [ara-A, reference compound]
mortality and weight loss ([4]; 755.3 mg/kg/day, qd 1-7): Significant mortality and severe weight loss | Avg. Body Wt. on Day 0 ([4]; Ara-A 125 mg/kg/day): 21.7 gm | Avg. Body Wt. on Day 7 ([4]; Ara-A 125 mg/kg/day): 25.4 gm | Avg. Body Wt. on Day 14 ([4]; Ara-A 125 mg/kg/day): 27.3 gm | Avg. Body Wt. on Day 21 ([4]; Ara-A 125 mg/kg/day): 29.5 gm | Mortality: No. Dead/Total No. of Mice ([4]; Ara-A 125 mg/kg/day): 0/10 | Avg. Body Wt. on Day 0 ([4]; Ara-A 250 mg/kg/day): 21.7 gm | Avg. Body Wt. on Day 7 ([4]; Ara-A 250 mg/kg/day): 25.1 gm | Avg. Body Wt. on Day 14 ([4]; Ara-A 250 mg/kg/day): 26.6 gm | Avg. Body Wt. on Day 21 ([4]; Ara-A 250 mg/kg/day): 29.1 gm | Mortality: No. Dead/Total No. of Mice ([4]; Ara-A 250 mg/kg/day): 0/10 | toxicity of dose levels ([4]; ara-A 125 to 250 mg/kg/day, qd 1-7): non-toxic | mortality at 504 h ([4]; Ara-A 125 mg/kg/day): 0% | mortality at 504 h ([4]; Ara-A 250 mg/kg/day): 0% | approx. LD10 ([4]; qd 1-7 schedule, mice): ~600 mg/kg/day | conversion to deaminated product ([5]; 2 hours, 25° C): complete conversion | deamination by adenosine deaminase [9]: rapidly deaminated | deamination rate [7]: 1 μmole/min/unit of enzyme | deamination by adenosine deaminase [7]: completely deaminated | CC50 [8]: 10 µM
